What all share (assay): Experiment on weeding effect in post-emergence stage
Holding throughout (format): in vivo
Holding throughout (settings): dose 15 g a.i./ha, fresh weight control rate level

The subject of experiment [1] is Digitaria sanguinalis. The text has this: (§1) Experiment on weeding effect in post-emergence stage:
(§2) Monocotyledonous and dicotyledonous weed seeds (Descurainia sophia, Capsella bursa-pastoris, Abutilon theophrasti, Galium aparine, Stellaria media, Lithospermum arvense, Rorippa indica, Alopecurus aequalis, Alopecurus japonicus, Beckmannia syzigachne, Sclerochloa dura, Conyza Canadensis, Phleum paniculatum, Veronica didyma Tenore, Eleusine indica, Bromus japonicus, Aegilops tauschii, Phalaris arundinacea, Amaranthus retroflexus, Chenopodium album, Commelina communis, Sonchus arvensis, Convolvulus arvensis, Cirsium setosum, Solanum nigrum, Acalypha australis, Digitaria sanguinalis, Echinochloa crusgalli, Setaria viridis, Setaria glauca, Leptochloa chinensis, Monochoria vaginalis, Sagittaria trolia, Scirpus juncoides, Cyperus rotundus, Cyperus iria, Cyperus difformis, Elmbristylis, Portulaca oleracea, Xanthium sibiricum, Pharbitis nil) and major crop seeds (wheat, corn, rice, soybean, cotton, oilseed rape, millet, sorghum, potato, sesame, ricinus) were placed in plastic pots filled with soil, then covered with 0.5-2 cm of soil, allowed to grow in a good greenhouse environment. After 2 weeks of sowing, the test plants were treated in the 2-3 leaf stage. The tested compounds of the present invention were respectively dissolved in acetone, then added with Tween 80 and 1.5 liter/ha of emulsifiable concentrate of methyl oleate as synergist, diluted with a certain amount of water to obtain a solution with a certain concentration, and sprayed with a spray tower onto the plants. After the application, the plants were cultured for 3 weeks in the greenhouse, and then the experimental results of the weeding were counted. The doses of the used compounds were 500, 250, 125, 60, 15 g a.i./ha, and the averages were obtained by repeating for three times.

Experiment [2] concerns Leptochloa chinensis.
From the text: as §1, §2

Experiment [3] concerns Amaranthus retroflexus.
From the text: as §1, §2

For experiment [4], the system named is Echinochloa crusgalli.
From the text: as §1, §2

The test system of experiment [5] is Setaria viridis.
From the text: as §1, §2

The subject of experiment [6] is Abutilon theophrasti.
From the text: as §1, §2

Experiment [7] relates to Veronica didyma Tenore.
From the text: as §1, §2

Experiment [8] has as its system Eleusine indica.
From the text: as §1, §2

Experiment [9] deals with Galium aparine.
From the text: as §1, §2

SMILES strings stand for the structures.

For `CCOC(=O)C(C)=NOC(=O)C1(C)CC(c2cc(-n3c(=O)n(C)c(=S)n(C)c3=O)c(F)cc2Cl)=NO1` (stereo not drawn) [Compound 123], the “weeding effect in post-emergence stage, Digitaria sanguinalis (level)” value (“weeding effect … Digitaria sanguinalis (level)” for short) in experiment [1] is recorded as 5 (Level 5: growth control rate is above 85%). Moreover, the “weeding effect in post-emergence stage, Leptochloa chinensis (level)” value (“weeding effect … Leptochloa chinensis (level)” for short) in experiment [2] was 5 (Level 5: growth control rate is above 85%). In addition, the “weeding effect in post-emergence stage, Amaranthus retroflexus (level)” value (“weeding effect … Amaranthus retroflexus (level)” below) in experiment [3] is given as 5 (Level 5: growth control rate is above 85%). For the same compound, the “weeding effect in post-emergence stage, Echinochloa crusgalli (level)” value (“weeding effect … Echinochloa crusgalli (level)” for short) in [4] is recorded as 5 (Level 5: growth control rate is above 85%). Further, the “weeding effect in post-emergence stage, Setaria viridis (level)” value (“weeding effect … Setaria viridis (level)” for short) in experiment [5] is 5 (Level 5: growth control rate is above 85%). Further, the “weeding effect in post-emergence stage, Abutilon theophrasti (level)” value (shortened to “weeding effect … Abutilon theophrasti (level)”) in [6] was 5 (Level 5: growth control rate is above 85%). The “weeding effect in post-emergence stage, Veronica didyma Tenore (level)” value (“weeding effect … Veronica didyma Tenore (level)” for short) in experiment [7] was 5 (Level 5: growth control rate is above 85%). Moreover, the “weeding effect in post-emergence stage, Eleusine indica (level)” value (from here on “weeding effect … Eleusine indica (level)”) in experiment [8] is given as 5 (Level 5: growth control rate is above 85%). The “weeding effect in post-emergence stage, Galium aparine (level)” value (shortened to “weeding effect … Galium aparine (level)”) in experiment [9] is on record as 5 (Level 5: growth control rate is above 85%).
Regarding `Cn1c(=S)n(C)c(=S)n(-c2cc(C3=NOC(C)(C(=O)ON=C4CCCC4)C3)c(Cl)cc2F)c1=O` (stereo not drawn) [Compound 74], in experiment [1], the “weeding effect … Digitaria sanguinalis (level)” value is 5 (Level 5: growth control rate is above 85%). Besides, the “weeding effect … Leptochloa chinensis (level)” value in [2] is recorded as 5 (Level 5: growth control rate is above 85%). Moreover, in experiment [3], the “weeding effect … Amaranthus retroflexus (level)” value was 5 (Level 5: growth control rate is above 85%). For the same compound, in experiment [4], the “weeding effect … Echinochloa crusgalli (level)” value is recorded as 5 (Level 5: growth control rate is above 85%). The “weeding effect … Setaria viridis (level)” value in [5] is 5 (Level 5: growth control rate is above 85%). In addition, the “weeding effect … Abutilon theophrasti (level)” value in [6] is reported as 5 (Level 5: growth control rate is above 85%). Moreover, the “weeding effect … Veronica didyma Tenore (level)” value in experiment [7] is recorded as 5 (Level 5: growth control rate is above 85%). The “weeding effect … Eleusine indica (level)” value in experiment [8] is reported as 5 (Level 5: growth control rate is above 85%). In addition, the “weeding effect … Galium aparine (level)” value in [9] is 5 (Level 5: growth control rate is above 85%).
Consider `Cn1c(=S)n(C)c(=S)n(-c2cc(C3=NOC(C)(C(=O)O/N=C/c4ccccc4)C3)c(Cl)cc2F)c1=O` (stereo not drawn) [Compound 69], for which the “weeding effect … Digitaria sanguinalis (level)” value in experiment [1] is listed as 5 (Level 5: growth control rate is above 85%). Further, in [2], the “weeding effect … Leptochloa chinensis (level)” value is listed as 5 (Level 5: growth control rate is above 85%). For the same compound, in experiment [3], the “weeding effect … Amaranthus retroflexus (level)” value is 5 (Level 5: growth control rate is above 85%). The “weeding effect … Echinochloa crusgalli (level)” value in experiment [4] was 5 (Level 5: growth control rate is above 85%). In addition, in experiment [5], the “weeding effect … Setaria viridis (level)” value was 5 (Level 5: growth control rate is above 85%). The “weeding effect … Abutilon theophrasti (level)” value in [6] is on record as 5 (Level 5: growth control rate is above 85%). In addition, in experiment [7], the “weeding effect … Veronica didyma Tenore (level)” value is listed as 5 (Level 5: growth control rate is above 85%). Besides, in experiment [8], the “weeding effect … Eleusine indica (level)” value is 5 (Level 5: growth control rate is above 85%). Besides, the “weeding effect … Galium aparine (level)” value in experiment [9] is listed as 5 (Level 5: growth control rate is above 85%).
As to `Cn1c(=S)n(C)c(=O)n(-c2cc(C3=NOC(C)(C(=O)ON=C4CCCC4)C3)c(Cl)cc2F)c1=O` (stereo not drawn) [Compound 146], in [1], the “weeding effect … Digitaria sanguinalis (level)” value was 5 (Level 5: growth control rate is above 85%). The “weeding effect … Leptochloa chinensis (level)” value in experiment [2] is 5 (Level 5: growth control rate is above 85%). The “weeding effect … Amaranthus retroflexus (level)” value in experiment [3] was 5 (Level 5: growth control rate is above 85%). In experiment [4], the “weeding effect … Echinochloa crusgalli (level)” value is reported as 5 (Level 5: growth control rate is above 85%). The “weeding effect … Setaria viridis (level)” value in experiment [5] is reported as 5 (Level 5: growth control rate is above 85%). The “weeding effect … Abutilon theophrasti (level)” value in experiment [6] is on record as 5 (Level 5: growth control rate is above 85%). Besides, the “weeding effect … Veronica didyma Tenore (level)” value in experiment [7] is given as 5 (Level 5: growth control rate is above 85%). Besides, the “weeding effect … Eleusine indica (level)” value in experiment [8] is on record as 5 (Level 5: growth control rate is above 85%). For the same compound, the “weeding effect … Galium aparine (level)” value in experiment [9] is 5 (Level 5: growth control rate is above 85%).
Take `CC(=NOC(=O)C1(C)CC(c2cc(-n3c(=O)n(C)c(=S)n(C)c3=O)c(F)cc2Cl)=NO1)C1CC1` (mixture of isomers) [Compound 84]: the “weeding effect … Digitaria sanguinalis (level)” value in [1] was 5 (Level 5: growth control rate is above 85%). In addition, the “weeding effect … Leptochloa chinensis (level)” value in experiment [2] is 5 (Level 5: growth control rate is above 85%). Further, the “weeding effect … Amaranthus retroflexus (level)” value in experiment [3] is on record as 5 (Level 5: growth control rate is above 85%). The “weeding effect … Echinochloa crusgalli (level)” value in experiment [4] is given as 5 (Level 5: growth control rate is above 85%). For the same compound, the “weeding effect … Setaria viridis (level)” value in [5] is recorded as 5 (Level 5: growth control rate is above 85%). The “weeding effect … Abutilon theophrasti (level)” value in experiment [6] is 5 (Level 5: growth control rate is above 85%). Besides, the “weeding effect … Veronica didyma Tenore (level)” value in [7] is 5 (Level 5: growth control rate is above 85%). The “weeding effect … Eleusine indica (level)” value in experiment [8] is 5 (Level 5: growth control rate is above 85%). Besides, the “weeding effect … Galium aparine (level)” value in experiment [9] was 5 (Level 5: growth control rate is above 85%).
As for `CCC(CC)=NOC(=O)C1(C)CC(c2cc(-n3c(=O)n(C)c(=S)n(C)c3=O)c(F)cc2Cl)=NO1` (racemic) [Compound 83], in experiment [1], the “weeding effect … Digitaria sanguinalis (level)” value is reported as 5 (Level 5: growth control rate is above 85%). Further, the “weeding effect … Leptochloa chinensis (level)” value in experiment [2] is 5 (Level 5: growth control rate is above 85%). In [3], the “weeding effect … Amaranthus retroflexus (level)” value was 5 (Level 5: growth control rate is above 85%). Further, the “weeding effect … Echinochloa crusgalli (level)” value in experiment [4] is recorded as 5 (Level 5: growth control rate is above 85%). For the same compound, the “weeding effect … Setaria viridis (level)” value in experiment [5] is reported as 5 (Level 5: growth control rate is above 85%). In addition, the “weeding effect … Abutilon theophrasti (level)” value in experiment [6] is given as 5 (Level 5: growth control rate is above 85%). Also, the “weeding effect … Veronica didyma Tenore (level)” value in experiment [7] is reported as 5 (Level 5: growth control rate is above 85%). The “weeding effect … Eleusine indica (level)” value in experiment [8] is 5 (Level 5: growth control rate is above 85%). The “weeding effect … Galium aparine (level)” value in [9] is recorded as 5 (Level 5: growth control rate is above 85%).
Turning to `C/C(=N\OC(=O)C1(C)CC(c2cc(-n3c(=O)n(C)c(=S)n(C)c3=S)c(F)cc2Cl)=NO1)C(C)C` (stereo not drawn) [Compound 58], in experiment [1], the “weeding effect … Digitaria sanguinalis (level)” value is on record as 5 (Level 5: growth control rate is above 85%). Also, in experiment [2], the “weeding effect … Leptochloa chinensis (level)” value is reported as 5 (Level 5: growth control rate is above 85%). Also, the “weeding effect … Amaranthus retroflexus (level)” value in experiment [3] is reported as 5 (Level 5: growth control rate is above 85%). The “weeding effect … Echinochloa crusgalli (level)” value in experiment [4] is recorded as 5 (Level 5: growth control rate is above 85%). Besides, the “weeding effect … Setaria viridis (level)” value in experiment [5] is given as 5 (Level 5: growth control rate is above 85%). Moreover, the “weeding effect … Abutilon theophrasti (level)” value in [6] was 5 (Level 5: growth control rate is above 85%). Further, in [7], the “weeding effect … Veronica didyma Tenore (level)” value is 5 (Level 5: growth control rate is above 85%). Also, the “weeding effect … Eleusine indica (level)” value in experiment [8] is reported as 5 (Level 5: growth control rate is above 85%). The “weeding effect … Galium aparine (level)” value in [9] was 5 (Level 5: growth control rate is above 85%).
`CCOC(=O)C(C)=NOC(=O)C1(C)CC(c2cc(-n3c(=O)n(C)c(=S)n(C)c3=S)c(F)cc2Cl)=NO1` (stereo not drawn) [Compound 75]: the “weeding effect … Digitaria sanguinalis (level)” value in [1] is 5 (Level 5: growth control rate is above 85%). Also, the “weeding effect … Leptochloa chinensis (level)” value in [2] is on record as 5 (Level 5: growth control rate is above 85%). Further, in experiment [3], the “weeding effect … Amaranthus retroflexus (level)” value is 5 (Level 5: growth control rate is above 85%). Also, the “weeding effect … Echinochloa crusgalli (level)” value in experiment [4] is given as 5 (Level 5: growth control rate is above 85%). Also, the “weeding effect … Setaria viridis (level)” value in experiment [5] is given as 5 (Level 5: growth control rate is above 85%). Further, in experiment [6], the “weeding effect … Abutilon theophrasti (level)” value is given as 5 (Level 5: growth control rate is above 85%). For the same compound, the “weeding effect … Veronica didyma Tenore (level)” value in experiment [7] was 5 (Level 5: growth control rate is above 85%). The “weeding effect … Eleusine indica (level)” value in experiment [8] was 5 (Level 5: growth control rate is above 85%). For the same compound, the “weeding effect … Galium aparine (level)” value in experiment [9] is on record as 5 (Level 5: growth control rate is above 85%).

The record behind these values is patent US20230072860A1, “ISOXAZOLINE OXIME FORMATE COMPOUND, PREPARATION METHOD THEREFOR, HERBICIDAL COMPOSITION AND USE THEREOF” (QINGDAO KINGAGROOT CHEMICAL COMPOUND CO., LTD., priority 2020, published 2023).
